Patent publication US7799821B2, “Therapeutic compounds” (Allergan, Inc., priority 2004, dated 2010)
Where two headings read alike, the source gives them in different places.

Legend:
hEP4/Gqs5 = biological target: T1, hEP4/Gqs5 (Homo sapiens, UniProt P35408); assay: FLIPR calcium signal, hEP4; type: cell-based; settings: FLIPR Ca2+ signal, HEK-293(EBNA); read-out: FUNCTIONAL EC50 HEP4
T1 construct: expressed in transfected cells; host or cells: HEK-293(EBNA)
Method in brief: (§1)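 HEK-293(EBNA) cells stably expressing the recombinant human receptor were loaded with 2 μM Fluo-4 AM for 45 min and read on FLIPR at 37° C in HBSS-HEPES pH 7.4. Peak fluorescence rise was expressed relative to buffer and standard agonist controls (BW245C, PGE2 or U-46619 by receptor); compounds were run 10^−5 to 10^−11 M in duplicate, n≧3.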

hEP2/Gqs5 = biological target: T2, hEP2/Gqs5 (Homo sapiens, UniProt P43116); assay: FLIPR calcium signal, hEP2; type: cell-based
T2 construct: expressed in transfected cells; host or cells: HEK-293(EBNA)
Method in brief: as §1

hEP3A/Gqi5 = biological target: T3, hEP3A/Gqi5 (Homo sapiens, UniProt P43115); assay: FLIPR calcium signal, hEP3A; type: cell-based; settings: FLIPR Ca2+ signal, HEK-293(EBNA); read-out: FUNCTIONAL EC50 HEP3A
T3 construct: expressed in transfected cells; host or cells: HEK-293(EBNA)
T3 sequence (P43115 1-390): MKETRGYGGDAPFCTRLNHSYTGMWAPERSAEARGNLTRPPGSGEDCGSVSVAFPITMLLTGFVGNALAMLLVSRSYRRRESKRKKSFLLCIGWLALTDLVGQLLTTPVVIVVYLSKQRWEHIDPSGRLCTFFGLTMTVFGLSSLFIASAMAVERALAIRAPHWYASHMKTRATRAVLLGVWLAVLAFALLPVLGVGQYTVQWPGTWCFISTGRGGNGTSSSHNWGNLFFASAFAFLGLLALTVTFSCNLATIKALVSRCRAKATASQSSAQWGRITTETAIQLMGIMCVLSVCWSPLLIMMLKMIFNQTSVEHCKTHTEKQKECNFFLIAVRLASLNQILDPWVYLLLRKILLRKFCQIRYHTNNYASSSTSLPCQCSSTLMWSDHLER
Method in brief: as §1

hTP = biological target: T4, hTP (Homo sapiens, UniProt P21731); assay: FLIPR calcium signal, hTP; type: cell-based
T4 construct: expressed in transfected cells; host or cells: HEK-293(EBNA)
T4 sequence (P21731 1-343): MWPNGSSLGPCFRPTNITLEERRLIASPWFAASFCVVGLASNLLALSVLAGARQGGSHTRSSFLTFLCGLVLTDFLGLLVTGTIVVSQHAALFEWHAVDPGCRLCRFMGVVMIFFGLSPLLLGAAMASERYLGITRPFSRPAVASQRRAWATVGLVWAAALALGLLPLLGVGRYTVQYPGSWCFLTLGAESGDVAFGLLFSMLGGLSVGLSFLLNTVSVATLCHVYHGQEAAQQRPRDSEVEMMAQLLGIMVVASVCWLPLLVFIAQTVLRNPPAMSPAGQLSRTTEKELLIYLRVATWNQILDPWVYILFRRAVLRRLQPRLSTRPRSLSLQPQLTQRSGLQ
Method: (§2) HEK-293(EBNA) cells, stably expressing one type or subtype of recombinant human prostaglandin receptors (prostaglandin receptors expressed: hDP/Gqs5; hEP1; hEP2/Gqs5; hEP3A/Gqi5; hEP4/Gqs5; hFP; hIP; hTP), were cultured in 100 mm culture dishes in high-glucose DMEM medium containing 10% fetal bovine serum, 2 mM 1-glutamine, 250 μg/ml geneticin (G418) and 200 μg/ml hygromycin B as selection markers, and 100 units/ml penicillin G, 100 μg/ml streptomycin and 0.25 μg/ml amphotericin B. • (b) Calcium Signal Studies on the FLIPR™
(§3) Cells were seeded at a density of 5×10^4 cells per well in Biocoat® Poly-D-lysine-coated black-wall, clear-bottom 96-well plates (Becton-Dickinson) and allowed to attach overnight in an incubator at 37° C. Cells were then washed two times with HBSS-HEPES buffer (Hanks Balanced Salt Solution without bicarbonate and phenol red, 20 mM HEPES, pH 7.4) using a Denley Cellwash plate washer (Labsystems). After 45 minutes of dye-loading in the dark, using the calcium-sensitive dye Fluo-4 AM at a final concentration of 2 μM, plates were washed four times with HBSS-HEPES buffer to remove excess dye leaving 100 μl in each well. Plates were re-equilibrated to 37° C. for a few minutes.
(§4) Cells were excited with an Argon laser at 488 nm, and emission was measured through a 510-570 nm bandwidth emission filter (FLIPR™, Molecular Devices, Sunnyvale, Calif.). Drug solution was added in a 50 μl volume to each well to give the desired final concentration. The peak increase in fluorescence intensity was recorded for each well. On each plate, four wells each served as negative (HBSS-HEPES buffer) and positive controls (standard agonists: BW245C (hDP); PGE2 (hEP1; hEP2/Gqs5; hEP3A/Gqi5; hEP4/Gqs5); PGF2α (hFP); carbacyclin (hIP); U-46619 (hTP), depending on receptor). The peak fluorescence change in each drug-containing well was then expressed relative to the controls.
(§5) Compounds were tested in a high-throughput (HTS) or concentration-response (CoRe) format. In the HTS format, forty-four compounds per plate were examined in duplicates at a concentration of 10^−5 M. To generate concentration-response curves, four compounds per plate were tested in duplicates in a concentration range between 10^−5 and 10^−11 M. The duplicate values were averaged. In either, HTS or CoRe format each compound was tested on at least 3 separate plates using cells from different passages to give an n≧3.

hDP/Gqs5 = biological target: T5, hDP/Gqs5 (Homo sapiens, UniProt Q13258); assay: FLIPR calcium signal, hDP; type: cell-based; settings: FLIPR Ca2+ signal, HEK-293(EBNA); read-out: FUNCTIONAL EC50 HDP
T5 construct: expressed in transfected cells; host or cells: HEK-293(EBNA)
T5 sequence (Q13258 1-359): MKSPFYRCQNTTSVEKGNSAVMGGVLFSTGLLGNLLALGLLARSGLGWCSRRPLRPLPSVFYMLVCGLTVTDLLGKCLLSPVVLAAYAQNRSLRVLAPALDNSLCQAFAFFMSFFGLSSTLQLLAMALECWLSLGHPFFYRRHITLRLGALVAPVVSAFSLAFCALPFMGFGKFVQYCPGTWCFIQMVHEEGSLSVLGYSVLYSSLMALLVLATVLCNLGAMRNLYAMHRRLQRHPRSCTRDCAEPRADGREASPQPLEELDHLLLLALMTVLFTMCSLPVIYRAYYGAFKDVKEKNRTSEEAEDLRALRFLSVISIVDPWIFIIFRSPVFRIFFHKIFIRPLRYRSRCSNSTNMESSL
Method: as §2, §3, §4, §5

hEP1 = biological target: T6, hEP1 (Homo sapiens, UniProt P34995); assay: FLIPR calcium signal, hEP1; type: cell-based; settings: FLIPR Ca2+ signal, HEK-293(EBNA); read-out: FUNCTIONAL EC50 HEP1
T6 construct: expressed in transfected cells; host or cells: HEK-293(EBNA)
T6 sequence (P34995 1-402): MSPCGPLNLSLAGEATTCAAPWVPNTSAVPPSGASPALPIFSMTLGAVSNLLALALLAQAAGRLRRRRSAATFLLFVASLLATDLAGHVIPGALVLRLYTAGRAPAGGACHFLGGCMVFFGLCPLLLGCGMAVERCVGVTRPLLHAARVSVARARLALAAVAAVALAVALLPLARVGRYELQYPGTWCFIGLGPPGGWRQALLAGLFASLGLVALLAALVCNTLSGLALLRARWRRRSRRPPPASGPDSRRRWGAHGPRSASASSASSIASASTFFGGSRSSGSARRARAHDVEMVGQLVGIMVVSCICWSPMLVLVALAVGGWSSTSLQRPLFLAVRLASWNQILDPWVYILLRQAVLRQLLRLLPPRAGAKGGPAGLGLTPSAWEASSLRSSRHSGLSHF
Method: as §2, §3, §4, §5

hIP = biological target: T7, hIP (Homo sapiens, UniProt P43119); assay: FLIPR calcium signal, hIP; type: cell-based; settings: FLIPR Ca2+ signal, HEK-293(EBNA); read-out: FUNCTIONAL EC50 HIP
T7 construct: expressed in transfected cells; host or cells: HEK-293(EBNA)
Method: as §2, §3, §4, §5

human EP2 receptors = biological target: T8, human EP2 receptors (Homo sapiens, UniProt P43116); assay: Competition radioligand binding ([3H]PGE2), EP2; settings: read-out: BINDING IC50 HEP2
T8 construct: expressed in transfected cells; host or cells: HEK 293

EP4 receptors = biological target: T9, EP4 receptors (Homo sapiens, UniProt P35408); assay: Radioligand binding ([3H]PGE2), EP4; settings: read-out: BINDING IC50 HEP4
T9 construct: expressed in transfected cells; host or cells: HEK-293
Method in brief: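 Membranes from HEK-293 cells stably expressing the human receptor, resuspended at 1 mg/ml protein in TME buffer pH 7.4. Competition against 5 nM [3H]PGE2 for 60 min at 25 °C, ended by filtration on GF/B filters; non-specific binding defined with 10^−5 M unlabeled PGE2.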

[1] = FLIPR Ca2+ signal, HEK-293(EBNA), read-out: FUNCTIONAL EC50 HEP2
[2] = FLIPR Ca2+ signal, HEK-293(EBNA), read-out: FUNCTIONAL EC50 HTP
[3] = read-out: FUNCTIONAL Ca2+ EC50 HEP2
[4] = read-out: FUNCTIONAL Ca2+ EC50 HTP

T1 sequence (P35408 whole entry): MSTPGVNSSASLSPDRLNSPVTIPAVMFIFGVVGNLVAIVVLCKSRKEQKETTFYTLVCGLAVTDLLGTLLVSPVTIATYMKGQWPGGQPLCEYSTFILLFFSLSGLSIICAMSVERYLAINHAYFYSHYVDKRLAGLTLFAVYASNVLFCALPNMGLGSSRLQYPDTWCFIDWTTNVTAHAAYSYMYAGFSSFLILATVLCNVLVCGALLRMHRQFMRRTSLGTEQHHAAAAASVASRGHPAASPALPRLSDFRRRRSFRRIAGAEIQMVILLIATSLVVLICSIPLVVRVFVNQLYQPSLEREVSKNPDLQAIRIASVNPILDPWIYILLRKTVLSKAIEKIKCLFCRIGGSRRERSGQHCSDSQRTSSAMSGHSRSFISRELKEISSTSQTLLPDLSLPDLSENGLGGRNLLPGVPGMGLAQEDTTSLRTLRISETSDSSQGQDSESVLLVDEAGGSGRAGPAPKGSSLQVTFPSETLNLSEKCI
T2 sequence (P43116 whole entry): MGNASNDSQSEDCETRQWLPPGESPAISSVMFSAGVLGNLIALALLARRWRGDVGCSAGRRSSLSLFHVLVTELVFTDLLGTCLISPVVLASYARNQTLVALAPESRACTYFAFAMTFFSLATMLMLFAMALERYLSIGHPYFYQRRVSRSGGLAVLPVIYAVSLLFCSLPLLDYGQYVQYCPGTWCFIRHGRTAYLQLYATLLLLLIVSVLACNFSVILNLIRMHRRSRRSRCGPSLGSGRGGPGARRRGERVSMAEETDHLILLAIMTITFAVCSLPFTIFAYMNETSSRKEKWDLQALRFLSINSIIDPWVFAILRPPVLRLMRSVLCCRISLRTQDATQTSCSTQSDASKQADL
T7 sequence (P43119 whole entry): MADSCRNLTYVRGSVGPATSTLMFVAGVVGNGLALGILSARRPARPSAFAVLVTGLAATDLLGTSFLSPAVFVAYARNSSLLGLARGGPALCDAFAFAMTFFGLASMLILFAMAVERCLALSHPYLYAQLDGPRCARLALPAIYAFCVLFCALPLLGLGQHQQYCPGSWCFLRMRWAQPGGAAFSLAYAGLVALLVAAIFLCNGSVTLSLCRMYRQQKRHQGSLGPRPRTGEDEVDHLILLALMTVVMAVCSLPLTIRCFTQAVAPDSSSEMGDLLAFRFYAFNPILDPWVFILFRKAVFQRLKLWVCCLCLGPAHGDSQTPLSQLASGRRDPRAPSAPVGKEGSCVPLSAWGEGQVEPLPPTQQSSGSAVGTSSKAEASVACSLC
T8 sequence (P43116 whole entry): as the sequence (P43116 whole entry) above
T9 sequence (P35408 whole entry): as the sequence (P35408 whole entry) above

Row | SMILES | EC50 (hEP2/Gqs5; [1]) | EC50 (hEP3A/Gqi5) | EC50 (hTP; [2]) | EC50 (hEP1) | further results
1 | COC(=O)CCCCCC[C@H]1C(=O)C[C@@H](O)[C@@H]1c1ccc2c(c1)CCC2 | > 10 µM | > 10 µM | > 10 µM | – | EC50 (hEP4/Gqs5): > 10 µM
2 | CCCC1(C(O)c2cccc([C@@H]3[C@@H](C/C=C\CCCC(=O)O)[C@H](Cl)C[C@H]3O)c2)CCC1 (some centres unmarked) | 0.322 µM | 0.455 µM | > 10 µM | – | EC50 (hDP/Gqs5): > 10 µM
3 | CC(C)(C)c1ccc([C@@H]2[C@@H](C/C=C\CCCC(=O)O)[C@H](Cl)C[C@H]2O)cc1 | 0.118 µM | 2.05 µM | 1.27 µM | > 10 µM | EC50 (hEP4/Gqs5): > 10 µM; EC50 (hDP/Gqs5): > 10 µM
4 | CCCC1(C(O)c2cccc([C@H]3[C@H](O)CC(=O)[C@@H]3CCCCCCC(=O)OC)c2)CCC1 (some centres unmarked) | > 10 µM | > 10 µM | – | – | EC50 (hEP4/Gqs5): > 10 µM; EC50 (hDP/Gqs5): > 10 µM; EC50 (hIP): > 10 µM
5 | COC(=O)CCCCCC[C@H]1C(=O)C[C@@H](O)[C@@H]1c1ccc(C(C)(C)C)cc1 | 0.936 µM | > 10 µM | > 10 µM | – | EC50 (hEP4/Gqs5): > 10 µM
6 | O=C(O)CCCCCC[C@@H]1[C@@H](c2ccc3c(c2)CCC3)[C@H](O)C[C@H]1Cl | 0.818 µM | – | 0.2 µM | 0.221 µM | IC50 (human EP2 receptors): 6.25 µM
7 | CCCC1(C(O)c2cccc([C@@H]3[C@@H](C/C=C\CCCC(=O)OC)[C@H](Cl)C[C@H]3O)c2)CCC1 (some centres unmarked) | > 10 µM | > 10 µM | > 10 µM | – | –
8 | Cc1ccc([C@H]2[C@H](O)CC(=O)[C@@H]2CCCCCCC(=O)O)cc1 | 3.13 µM | – | 0.094 µM | 1.87 µM | –
9 | COC(=O)CCCCCC[C@H]1C(=O)CC[C@@H]1c1ccc(C(O)C2CCCCC2)cc1 (some centres unmarked) | – | – | – | – | EC50 (hEP2/Gqs5; [3]): > 10 µM; EC50 (hTP; [4]): > 10 µM
10 | O=C(O)CCC/C=C\C[C@@H]1[C@@H](c2ccc(C3(O)CCC3)cc2)[C@H](O)C[C@H]1Cl | 0.513 µM | – | > 10 µM | – | –
11 | CC(C)(C)c1ccc([C@H]2[C@H](O)CC(=O)[C@@H]2CCCCCCC(=O)O)cc1 | 0.102 µM | 3.39 µM | 4.27 µM | > 10 µM | EC50 (hIP): > 10 µM
12 | COC(=O)CCCCCC[C@@H]1[C@@H](c2ccc3c(c2)CCC3)[C@H](O)C[C@H]1Cl | – | – | 0.506 µM | – | IC50 (EP4 receptors): 13.1 µM
13 | COC(=O)CCCCCC[C@@H]1[C@@H](c2ccc(C3(O)CCC3)cc2)[C@H](O)C[C@H]1Cl | > 10 µM | – | > 10 µM | – | –
14 | O=C(O)CCCCCC[C@H]1C(=O)CC[C@@H]1c1ccc(C(O)C2CCCCC2)cc1 (some centres unmarked) | – | – | – | – | EC50 (hEP2/Gqs5; [3]): > 10 µM; EC50 (hTP; [4]): > 10 µM
15 | COC(=O)CCCCCC[C@@H]1[C@@H](c2ccc3c(c2)CCC3O)[C@H](O)C[C@H]1Cl (some centres unmarked) | – | – | 17.5 µM | – | EC50 (hEP4/Gqs5): 22.5 µM
16 | O=C(O)CCCCCC[C@H]1C(=O)C[C@@H](O)[C@@H]1c1ccc(C2(O)CCC2)cc1 | > 10 µM | – | – | – | EC50 (hIP): > 10 µM
17 | CC(C)(C)c1ccc([C@H]2[C@H](O)CC(=O)[C@@H]2C/C=C\CCCC(=O)O)cc1 | 1.71 µM | – | – | > 10 µM | –
18 | CC(C)(C)c1ccc([C@@H]2[C@@H](CCCCCCC(=O)O)[C@H](Cl)C[C@H]2O)cc1 [drawing 70] | 0.264 µM | > 10 µM | > 10 µM | > 10 µM | EC50 (hDP/Gqs5): > 10 µM
19 | O=C(O)CCCCCC[C@@H]1[C@@H](c2ccc3c(c2)CCC3O)[C@H](O)C[C@H]1Cl (some centres unmarked) | 0.529 µM | – | 2.99 µM | – | IC50 (human EP2 receptors): 13.1 µM
